Laboratory results: paper PMC7991740, “Introduction of Non-natural Amino Acids Into T-Cell Epitopes to Mitigate Peptide-Specific T-Cell Responses” (Frontiers in Immunology, 2021)
Like-named read-outs stand apart in the source and are kept apart here. *1 amine or outer side, *2 acyl side, *3 side chain or, on linkers, in order; H or OH if unused. Where a SMILES comes first, the peptide text is derived from it. [ ]: non-standard residue; d: D form. X1 = NCCCC[C@@H](C(=O)[*:2])N(C[C@@H]1CCCN1)[*:1]

Tests used:
Assay in all cases: biochemical
Assay type in all cases: binding
[1] = target: T1, HLA-DRB1*01:01 (Homo sapiens, UniProt P01903+P01911, A100R/D57E/F55L/F60I/F76Y/I96L/L162R/M171V/P40L/Q125E/R42F/V115G/Y59C)
T1 construct: Human leukocyte antigen-DR molecules were immunopurified from homozygous EBV B lymphoblastoid cells; endogenous in cells

[2] = target: T2, HLA-DRB1*04:01 (Homo sapiens, UniProt P01903+P01911, A100K/A169T/F76Y/I96L/K127E/L162R/M171V/N62H/P40V/Q125Y/R42H/S133A/S149N/S66Y/V115G/V209L/W38E)
T2 construct: Human leukocyte antigen-DR molecules were immunopurified from homozygous EBV B lymphoblastoid cells; endogenous in cells

[3] = target: HLA-DRB1*07:01 (Homo sapiens, UniProt P01903+P01911, A100R/A102G/A103Q/D57E/D86V/E43K/F76Y/K127E/L162R/M171V/P40G/Q125H/Q99D/R33Q/R42Y/R54Q/S133A/S66F/T210M/V115G/Y107V/Y59L/Y89S)
[4] = target: HLA-DRB1*11:01 (Homo sapiens, UniProt P01903+P01911, A100R/A169T/A87E/I96F/K41T/L162R/M171V/P40S/Q125H/Q178H/Q39Y/Q99D/R42S/S66Y/T262R/V115G/W38E)
Sequence of HLA-DRB1*11:01 (P01903 26-254 limits assumed, other chains not shown): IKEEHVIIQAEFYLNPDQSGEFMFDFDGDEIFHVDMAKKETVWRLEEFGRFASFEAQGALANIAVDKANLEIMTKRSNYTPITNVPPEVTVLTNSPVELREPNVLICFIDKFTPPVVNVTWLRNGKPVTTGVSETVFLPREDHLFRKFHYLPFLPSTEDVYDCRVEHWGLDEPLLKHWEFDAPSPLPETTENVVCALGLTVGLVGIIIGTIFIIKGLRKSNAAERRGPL

[5] = target: T3, HLA-DRB5*01:01 (Homo sapiens, UniProt P01903+Q30154)
T3 construct: Human leukocyte antigen-DR molecules were immunopurified from homozygous EBV B lymphoblastoid cells; endogenous in cells

[6] = […], mean of at least two independent experiments, read-out: IC50 DRB1*0101
[7] = […], mean of at least two independent experiments, read-out: IC50 DRB1*0401
[8] = […], mean of at least two independent experiments, read-out: IC50 DRB1*0701 (converted)
[9] = […], mean of at least two independent experiments, read-out: IC50 DRB1*1101 (converted)
[10] = […], mean of at least two independent experiments, read-out: IC50 DRB5*0101

Structure (SMILES)	IC50 [1, 6] [nM]	IC50 [2, 7] [nM]	IC50 [3, 8] [nM]	IC50 [4, 9] [nM]	IC50 [5, 10] [nM]	IC50 ([1]; IC50 DRB1*0101) [nM]	IC50 [2] [nM]	IC50 [3] [nM]	IC50 [4] [nM]	IC50 [5] [nM]
CC(C)C[C@H](NC(=O)[C@H](CCCCN)NC(=O)[C@H](CC(C)C)NC(=O)[C@@H](NC(=O)[C@H](CC(N)=O)NC(=O)CN(CCC(N)=O)C(=O)[C@H](CCCCN)NC(=O)[C@@H](NC(=O)[C@H](Cc1ccc(O)cc1)NC(=O)[C@H](CCCCN)NC(=O)[C@@H]1CCCN1)C(C)C)[C@@H](C)O)C(=O)N[C@@H](C)C(=O)N[C@H](C(=O)O)[C@@H](C)O [Pep6]	0.4	82	290	45	10					
CC(C)C[C@H](NC(=O)[C@H](CCCCN)NC(=O)[C@H](CC(C)C)NC(=O)[C@@H](NC(=O)CN(CC(N)=O)C(=O)[C@H](CCC(N)=O)NC(=O)[C@H](CCCCN)NC(=O)[C@@H](NC(=O)[C@H](Cc1ccc(O)cc1)NC(=O)[C@H](CCCCN)NC(=O)[C@@H]1CCCN1)C(C)C)[C@@H](C)O)C(=O)N[C@@H](C)C(=O)N[C@H](C(=O)O)[C@@H](C)O [Pep7]						0.3	450	16	200	15
CC(C)C[C@H](NC(=O)[C@@H](NC(=O)[C@H](CC(N)=O)NC(=O)[C@H](CCC(N)=O)NC(=O)[C@H](CCCCN)NC(=O)[C@@H](NC(=O)[C@H](Cc1ccc(O)cc1)NC(=O)[C@H](CCCCN)NC(=O)[C@@H]1CCCN1)C(C)C)[C@@H](C)O)C(=O)N[C@@H](CCCCN)C(=O)N[C@@H](CC(C)C)C(=O)N(C)CC(=O)N[C@H](C(=O)O)[C@@H](C)O [Pep12]	0.3	4	10	14	3					
CC(C)C[C@H](NC(=O)[C@H](CCCCN)NC(=O)[C@H](CC(C)C)NC(=O)[C@@H](NC(=O)[C@H](CC(N)=O)NC(=O)[C@H](CCC(N)=O)NC(=O)[C@H](CCCCN)NC(=O)[C@@H](NC(=O)[C@H](Cc1ccc(O)cc1)NC(=O)[C@H](CCCCN)NC[C@@H]1CCCN1)C(C)C)[C@@H](C)O)C(=O)N[C@@H](C)C(=O)N[C@H](C(=O)O)[C@@H](C)O [Rd1] (H-[X1]YVKQNTLKLAT-OH; N-terminus and C-terminus assumed)	2	25	140	2500	120					
